As a reminder, the boiling point is the temperature of boiling at a given pressure. As usually defined, the melting point is the temperature of the solid-liquid transition. `CC(C)(C)Br` registered a boiling point of 73.3 °C, a log10 vapour pressure (mmHg) of 2.13 and a melting point of -16.2 °C.

Molecule `COc1ccco1` came in with a boiling point of 110 °C.

On to `Fc1cc(F)nc(F)n1`, for which the boiling point amounted to 98 °C.

Regarding `O=C(Cl)CCC(=O)Cl`, the boiling point came to 193 °C, the log10 vapour pressure (mmHg) was -0.432 and the melting point was determined as 20 °C.

As for `CCN1CCCC(N)C1` (stereo not given), the boiling point was 155 °C.

Turning to `CCC#CCCCCC`, the boiling point came to 157 °C.

In the case of `Nc1ccc2c(c1)Cc1cc(N)ccc1-2`, the melting point was found to be 166 °C.

As to `C=C(Br)c1ccccc1`, the melting point was -44 °C and the ready biodegradability entry was “not readily biodegradable”.

`OCCCc1ccccn1` came in with a boiling point of 260 °C and a melting point of 34 °C.

The molecule `CCC(=O)N(CC)CC` had a boiling point of 191 °C.

In the case of `COC(C)(OC)OC`, the boiling point came out at 108 °C.

Take `Nc1ccccc1-c1ccccc1`: the boiling point came out at 299 °C, the melting point turned out to be 51 °C and the ready biodegradability entry is “not readily biodegradable”.

`CCCC(=O)N(CC)CC` had a boiling point of 206 °C.

Turning to `CCCCCCCCCCCCOC(=O)CCSCCC(=O)OCCCCCCCCCCCC`, the melting point is 41 °C and the ready biodegradability entry was “readily biodegradable”.

In turn, `CCCCCO[N+](=O)[O-]` yielded a boiling point of 157 °C, a log10 Henry constant (atm·m³/mol) of -2.78 and a log10 vapour pressure (mmHg) of 0.705.

As to `Cc1ccc(C)c(O)c1C`, the boiling point was found to be 226 °C, the log10 vapour pressure (mmHg) is -1.46, the melting point worked out at 58 °C and the ready biodegradability result is listed as “not readily biodegradable”.

In turn, `C=CCCCCCCCCCCCCCCC` yielded a boiling point of 300 °C, a log10 vapour pressure (mmHg) of -3.34 and a melting point of 11.5 °C.

Consider `CCC`, for which the boiling point was -42.1 °C, the log10 Koa amounted to 0.97, the log10 vapour pressure (mmHg) was determined as 3.85 and the melting point is -188 °C. The ready biodegradability result was “readily biodegradable”.

Take `O=C1CC[C@@]2(O)[C@H]3Cc4ccc(O)c5c4[C@@]2(CCN3CC2CC2)[C@H]1O5`: the melting point is 169 °C.

With `OCc1cccc(I)c1`, the boiling point is 252 °C.

`Oc1ccc(Nc2ccccc2)cc1` had a boiling point of 330 °C and a melting point of 73 °C.

As to `C[N+]1(CCC(C(N)=O)(c2ccccc2)c2ccccc2)CCCCC1.[Br-]`, the melting point was 178 °C.

For the molecule `CON(C)C(=O)Nc1ccc(Cl)c(Cl)c1`, the log10 Koc (L/kg) is 2.7, the log10 vapour pressure (mmHg) is -5.84, the melting point turned out to be 93 °C and the ready biodegradability entry was “not readily biodegradable”.

`N#CCCc1ccccc1`: the boiling point was 261 °C and the melting point was -1 °C.

On to `CC(=O)CC(=O)C(F)(F)F`, for which the boiling point turned out to be 106 °C.

`O=C=Nc1ccccc1[N+](=O)[O-]` had a melting point of 41 °C.

For the molecule `CCC(C)CC(CC)CC` (stereo not given), the boiling point is 158 °C.

On to `CCC(C(=O)O)C1(O)CCC(c2ccccc2)CC1` (stereo not given), for which the melting point was determined as 157 °C.

In turn, `C=C(C)c1cccc(C)c1` displayed a boiling point of 185 °C.

`CCCCNCCO` displayed a boiling point of 199 °C and a melting point of -2 °C.

As for `CN(C)c1ccc(N=Nc2ccccc2)cc1`, the log10 Koc (L/kg) came to 3.87, the log10 vapour pressure (mmHg) is -7.15 and the melting point came out at 117 °C.

As to `Cc1cnc2c(ccc3c(C)c(C)cnc32)c1C`, the melting point stood at 278 °C.

Regarding `Cc1ccccc1CC(C)C`, the boiling point was 196 °C and the melting point was -73.3 °C.

For `CCCCCCCCCCCCCCCCCCC1CO1` (stereo not given), the ready biodegradability result is reported as “readily biodegradable”.

As for `CCNP(=S)(OC)O/C(C)=C/C(=O)OC(C)C` (stereo not given), the log10 vapour pressure (mmHg) was -4.84.

Turning to `OCC(F)(F)C(F)(F)C(F)(F)C(F)(F)C(F)(F)C(F)F`, the ready biodegradability entry is listed as “not readily biodegradable”.

`BrCc1ccc(CBr)cc1` displayed a boiling point of 245 °C and a melting point of 144 °C.

For the molecule `CCCCCCC(=O)O`, the boiling point was found to be 222 °C, the log10 vapour pressure (mmHg) was -1.97, the melting point was -7.5 °C and the ready biodegradability entry is on record as “readily biodegradable”.

`O=[N+]([O-])c1cccc2ncccc12`: the melting point was 74 °C.

The molecule `Fc1cc(F)c(F)nc1F` had a boiling point of 102 °C.

`Cc1cccc2c1CC=C2` showed a boiling point of 209 °C.

With `COc1ccc(N)c([N+](=O)[O-])c1`, the melting point came out at 124 °C and the ready biodegradability result was “not readily biodegradable”.

Regarding `Nc1cccc2cccc(N)c12`, the melting point was 66.5 °C and the ready biodegradability result is “not readily biodegradable”.

Molecule `COC(=O)c1ccc(OC)cc1` gave a boiling point of 256 °C and a melting point of 49 °C.

With `CCC1CCCCN1C(=O)COC(=O)c1ccccc1` (stereo not given), the melting point came out at 54.5 °C.

As to `O=C(/C=C/c1ccccc1)c1ccccc1`, the boiling point turned out to be 346 °C and the melting point came to 57.5 °C.

On to `CC(CCC(=O)O)n1nc2ccccc2n1` (stereo not given), for which the melting point turned out to be 73 °C.

`CCCC(C)CCC(C)C` (stereo not given) had a boiling point of 158 °C and a log10 biodegradation half-life (days) of 0.301.

Turning to `[O-][n+]1cccc(O)c1`, the melting point came to 191 °C.

Molecule `Oc1ccc(O)c(Br)c1` yielded a melting point of 112 °C.

In the case of `C=CCC(C(=O)NC(N)=O)C(C)C` (stereo not given), the melting point worked out at 194 °C.

Molecule `CCC=CCCO` displayed a boiling point of 156 °C.

With `CCCCCCCCCc1ccc(O)cc1`, the log10 Koc (L/kg) turned out to be 3.84, the log10 vapour pressure (mmHg) was -3.09 and the melting point came out at 42 °C.

Regarding `CCOC(=O)CC1CCCCC1`, the boiling point worked out at 211 °C.

The molecule `CCC[C@](C)(O)CC` came in with a boiling point of 143 °C and a log10 vapour pressure (mmHg) of 0.291.

For the molecule `CCC(C)C(C(=O)OCC[N+](C)(CC)CC)c1ccccc1.[Br-]` (stereo not given), the melting point came out at 102 °C.

As to `Oc1cccnc1`, the ready biodegradability result is “readily biodegradable”.

On to `c1cncc([C@@H]2CCCN2)c1`, for which the boiling point was found to be 270 °C and the ready biodegradability entry is on record as “not readily biodegradable”.

The record behind these values is the OPERA property sets (Mansouri et al. 2018).
